The source of these data is PMC2769999 (Biochemistry, 2009).

pKd: −log10 of the molar value.

What is called pKd is −log10 of the Kd, conventionally taken in molar units. Low values mean a large Kd, high ones a small Kd.

This assay addresses T1, V331C LacY (lactose permease), MIANS- or DACM-labelled (Escherichia coli, UniProt P02920, E325Q/K319L/V331C).
T1 sequence (P02920 1-417 K319L/E325Q/V331C): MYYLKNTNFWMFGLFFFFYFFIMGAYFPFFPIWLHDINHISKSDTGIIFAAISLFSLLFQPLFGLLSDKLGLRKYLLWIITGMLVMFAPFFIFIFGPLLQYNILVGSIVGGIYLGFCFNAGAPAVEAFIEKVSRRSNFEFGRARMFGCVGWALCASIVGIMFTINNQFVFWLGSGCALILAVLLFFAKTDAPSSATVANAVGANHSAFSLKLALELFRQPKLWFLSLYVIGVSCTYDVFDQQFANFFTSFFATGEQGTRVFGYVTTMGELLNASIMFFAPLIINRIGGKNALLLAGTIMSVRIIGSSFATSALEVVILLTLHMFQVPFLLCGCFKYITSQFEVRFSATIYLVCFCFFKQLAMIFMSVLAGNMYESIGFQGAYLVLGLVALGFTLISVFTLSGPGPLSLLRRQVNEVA
The experiment in a line: stopped-flow Trp to NPG FRET, kobs vs NPG. It counts as binding.

Compound `O=[N+]([O-])c1ccc(O[C@H]2O[C@H](CO)[C@H](O)[C@H](O)[C@H]2O)cc1` [NPG, 4-nitrophenyl α-D-galactopyranoside] showed a negative-log Kd (pKd) of 5.08.
